{"source": "patent US20260027116A1", "about": "“Methods of Treating Chronic Graft-Versus-Host Disease Following Allogeneic Hematopoietic Stem Cell Transplantation” (Kadmon Corporation, LLC, priority 2022, published 2026)", "test_system": "patients with cGVHD", "experiment": "Example 2: safety, adverse events, relative dose intensity", "assay_type": "in vivo", "conditions": "for Cough / Diarrhea / Dyspnea / Fatigue / Headache / Muscle spasms / Nausea / Peripheral edema / Upper respiratory tract infection / Vomiting: All grades; for Hyperglycemia / Hypertension / Pneumonia: Grade ≥ 3; for ALT increased / AST increased / Bilirubin conjugated increased / Blood alkaline phosphatase increased / GGT increased / Hypoalbuminemia / LFT increased / Transaminases increased: Liver-related AE", "description": "All responses were assessed by the study site investigators."}
{"smiles": "CC(C)NC(=O)COc1cccc(-c2nc(Nc3ccc4[nH]ncc4c3)c3ccccc3n2)c1", "note": "[Belumosudil, 2-{3-[4-(1H-indazol-5-ylamino)-2-quinazolinyl]phenoxy}-N-(propan-2-yl) acetamide]", "values": [{"measurement": "Any AE", "setting": "200 mg daily (n = 66)", "value": "65 (99) n (%)"}, {"measurement": "Deaths", "setting": "200 mg daily (n = 66)", "value": "8 (12) n (%)"}, {"measurement": "Drug-related AEs", "setting": "200 mg daily (n = 66)", "value": "49 (74) n (%)"}, {"measurement": "Drug-related SAEs", "setting": "200 mg daily (n = 66)", "value": "5 (8) n (%)"}, {"measurement": "Grade ≥ 3 AEs", "setting": "200 mg daily (n = 66)", "value": "37 (56) n (%)"}, {"measurement": "Liver-related AEs", "setting": "200 mg daily (n = 66)", "value": "12 (18) n (%)"}, {"measurement": "SAEs", "setting": "200 mg daily (n = 66)", "value": "27 (41) n (%)"}, {"measurement": "Any AE", "setting": "200 mg twice daily (n = 66)", "value": "66 (100) n (%)"}, {"measurement": "Deaths", "setting": "200 mg twice daily (n = 66)", "value": "6 (9) n (%)"}, {"measurement": "Drug-related AEs", "setting": "200 mg twice daily (n = 66)", "value": "40 (61) n (%)"}, {"measurement": "Drug-related SAEs", "setting": "200 mg twice daily (n = 66)", "value": "2 (3) n (%)"}, {"measurement": "Grade ≥ 3 AEs", "setting": "200 mg twice daily (n = 66)", "value": "34 (52) n (%)"}, {"measurement": "Liver-related AEs", "setting": "200 mg twice daily (n = 66)", "value": "19 (29) n (%)"}, {"measurement": "SAEs", "setting": "200 mg twice daily (n = 66)", "value": "23 (35) n (%)"}, {"measurement": "Cough", "setting": "200 mg daily (n = 66)", "value": "20 (30) n (%)"}, {"measurement": "Diarrhea", "setting": "200 mg daily (n = 66)", "value": "23 (35) n (%)"}, {"measurement": "Dyspnea", "setting": "200 mg daily (n = 66)", "value": "21 (32) n (%)"}, {"measurement": "Fatigue", "setting": "200 mg daily (n = 66)", "value": "30 (46) n (%)"}, {"measurement": "Headache", "setting": "200 mg daily (n = 66)", "value": "13 (20) n (%)"}, {"measurement": "Muscle spasms", "setting": "200 mg daily (n = 66)", "value": "13 (20) n (%)"}, {"measurement": "Nausea", "setting": "200 mg daily (n = 66)", "value": "23 (35) n (%)"}, {"measurement": "Peripheral edema", "setting": "200 mg daily (n = 66)", "value": "17 (26) n (%)"}, {"measurement": "Upper respiratory tract infection", "setting": "200 mg daily (n = 66)", "value": "17 (26) n (%)"}, {"measurement": "Vomiting", "setting": "200 mg daily (n = 66)", "value": "18 (27) n (%)"}, {"measurement": "Cough", "setting": "200 mg twice daily (n = 66)", "value": "17 (26) n (%)"}, {"measurement": "Diarrhea", "setting": "200 mg twice daily (n = 66)", "value": "21 (32) n (%)"}, {"measurement": "Dyspnea", "setting": "200 mg twice daily (n = 66)", "value": "12 (18) n (%)"}, {"measurement": "Fatigue", "setting": "200 mg twice daily (n = 66)", "value": "20 (30) n (%)"}, {"measurement": "Headache", "setting": "200 mg twice daily (n = 66)", "value": "18 (27) n (%)"}, {"measurement": "Muscle spasms", "setting": "200 mg twice daily (n = 66)", "value": "13 (20) n (%)"}, {"measurement": "Nausea", "setting": "200 mg twice daily (n = 66)", "value": "18 (27) n (%)"}, {"measurement": "Peripheral edema", "setting": "200 mg twice daily (n = 66)", "value": "13 (20) n (%)"}, {"measurement": "Upper respiratory tract infection", "setting": "200 mg twice daily (n = 66)", "value": "18 (27) n (%)"}, {"measurement": "Vomiting", "setting": "200 mg twice daily (n = 66)", "value": "10 (15) n (%)"}, {"measurement": "Cough", "setting": "Total (N = 132)", "value": "37 (28) n (%)"}, {"measurement": "Diarrhea", "setting": "Total (N = 132)", "value": "44 (33) n (%)"}, {"measurement": "Dyspnea", "setting": "Total (N = 132)", "value": "33 (25) n (%)"}, {"measurement": "Fatigue", "setting": "Total (N = 132)", "value": "50 (38) n (%)"}, {"measurement": "Headache", "setting": "Total (N = 132)", "value": "31 (24) n (%)"}, {"measurement": "Muscle spasms", "setting": "Total (N = 132)", "value": "26 (20) n (%)"}, {"measurement": "Nausea", "setting": "Total (N = 132)", "value": "41 (31) n (%)"}, {"measurement": "Peripheral edema", "setting": "Total (N = 132)", "value": "30 (23) n (%)"}, {"measurement": "Upper respiratory tract infection", "setting": "Total (N = 132)", "value": "35 (27) n (%)"}, {"measurement": "Vomiting", "setting": "Total (N = 132)", "value": "28 (21) n (%)"}, {"measurement": "SAE pneumonia", "setting": "Example 2", "value": 7, "unit": "%"}, {"measurement": "deaths from multiorgan failure and infection possibly related to belumosudil", "setting": "Example 2", "value": 2}, {"measurement": "grade 3 or 4 hyperglycemia", "setting": "Example 2", "value": 5, "unit": "%"}, {"measurement": "grade 3 or 4 hypertension", "setting": "Example 2", "value": 6, "unit": "%"}, {"measurement": "grade 3 or 4 pneumonia", "setting": "Example 2", "value": 8, "unit": "%"}, {"measurement": "grade ≥3 anemia", "setting": "Example 2", "value": 3, "unit": "%"}, {"measurement": "grade ≥3 cytopenias", "setting": "Example 2", "value": "< 4", "unit": "%"}, {"measurement": "grade ≥3 neutropenia", "setting": "Example 2", "value": 2, "unit": "%"}, {"measurement": "grade ≥3 thrombocytopenia", "setting": "Example 2", "value": 2, "unit": "%"}, {"measurement": "increased GGT (AE)", "setting": "Example 2", "value": 12, "unit": "%"}, {"measurement": "median RDI", "setting": "Example 2", "value": 99.7, "unit": "%"}, {"measurement": "subjects who died during the study", "setting": "Example 2", "value": "Fourteen"}, {"measurement": "subjects who discontinued because of overall AEs", "setting": "Example 2", "value": 21, "unit": "%"}, {"measurement": "subjects who discontinued because of possible drug-related AEs", "setting": "Example 2", "value": 12, "unit": "%"}, {"measurement": "subjects who discontinued because of progression of cGVHD", "setting": "Example 2", "value": 16, "unit": "%"}, {"measurement": "subjects who discontinued because of progression of underlying malignant disease", "setting": "Example 2", "value": 4, "unit": "%"}, {"measurement": "subjects who received an RDI >95%", "setting": "Example 2", "value": "Eighty-one"}, {"measurement": "subjects with increased liver function tests (LFTs)", "setting": "Example 2", "value": "Twenty-four"}, {"measurement": "subjects with ≥1 SAE", "setting": "Example 2", "value": "Thirty eight"}, {"measurement": "tolerability", "setting": "Example 2", "value": "well tolerated"}, {"measurement": "cases of Epstein-Barr viremia that required treatment", "setting": "Example 2, unrelated to belumosudil", "value": 1, "unit": "case"}, {"measurement": "Hyperglycemia", "setting": "200 mg daily (n = 66)", "value": "3 (5) n (%)"}, {"measurement": "Hypertension", "setting": "200 mg daily (n = 66)", "value": "4 (6) n (%)"}, {"measurement": "Pneumonia", "setting": "200 mg daily (n = 66)", "value": "6 (9) n (%)"}, {"measurement": "Hyperglycemia", "setting": "200 mg twice daily (n = 66)", "value": "3 (5) n (%)"}, {"measurement": "Hypertension", "setting": "200 mg twice daily (n = 66)", "value": "4 (6) n (%)"}, {"measurement": "Pneumonia", "setting": "200 mg twice daily (n = 66)", "value": "4 (6) n (%)"}, {"measurement": "Hyperglycemia", "setting": "Total (N = 132)", "value": "6 (5) n (%)"}, {"measurement": "Hypertension", "setting": "Total (N = 132)", "value": "8 (6) n (%)"}, {"measurement": "Pneumonia", "setting": "Total (N = 132)", "value": "10 (8) n (%)"}, {"measurement": "ALT increased", "setting": "200 mg daily (n = 66)", "value": "4 (6) n (%)"}, {"measurement": "AST increased", "setting": "200 mg daily (n = 66)", "value": "5 (8) n (%)"}, {"measurement": "Bilirubin conjugated increased", "setting": "200 mg daily (n = 66)", "value": "1 (2) n (%)"}, {"measurement": "Blood alkaline phosphatase increased", "setting": "200 mg daily (n = 66)", "value": "4 (6) n (%)"}, {"measurement": "GGT increased", "setting": "200 mg daily (n = 66)", "value": "6 (9) n (%)"}, {"measurement": "Hypoalbuminemia", "setting": "200 mg daily (n = 66)", "value": "2 (3) n (%)"}, {"measurement": "LFT increased", "setting": "200 mg daily (n = 66)", "value": "1 (2) n (%)"}, {"measurement": "Transaminases increased", "setting": "200 mg daily (n = 66)", "value": "1 (2) n (%)"}, {"measurement": "ALT increased", "setting": "200 mg twice daily (n = 66)", "value": "7 (11) n (%)"}, {"measurement": "AST increased", "setting": "200 mg twice daily (n = 66)", "value": "8 (12) n (%)"}, {"measurement": "Bilirubin conjugated increased", "setting": "200 mg twice daily (n = 66)", "value": "0 n (%)"}, {"measurement": "Blood alkaline phosphatase increased", "setting": "200 mg twice daily (n = 66)", "value": "6 (9) n (%)"}, {"measurement": "GGT increased", "setting": "200 mg twice daily (n = 66)", "value": "10 (15) n (%)"}, {"measurement": "Hypoalbuminemia", "setting": "200 mg twice daily (n = 66)", "value": "2 (3) n (%)"}, {"measurement": "LFT increased", "setting": "200 mg twice daily (n = 66)", "value": "0 n (%)"}, {"measurement": "Transaminases increased", "setting": "200 mg twice daily (n = 66)", "value": "1 (2) n (%)"}, {"measurement": "ALT increased", "setting": "Total (N = 132)", "value": "11 (8) n (%)"}, {"measurement": "AST increased", "setting": "Total (N = 132)", "value": "13 (10) n (%)"}, {"measurement": "Bilirubin conjugated increased", "setting": "Total (N = 132)", "value": "1 (1) n (%)"}, {"measurement": "Blood alkaline phosphatase increased", "setting": "Total (N = 132)", "value": "10 (8) n (%)"}, {"measurement": "GGT increased", "setting": "Total (N = 132)", "value": "16 (12) n (%)"}, {"measurement": "Hypoalbuminemia", "setting": "Total (N = 132)", "value": "4 (3) n (%)"}, {"measurement": "LFT increased", "setting": "Total (N = 132)", "value": "1 (1) n (%)"}, {"measurement": "Transaminases increased", "setting": "Total (N = 132)", "value": "2 (2) n (%)"}, {"measurement": "Any AE", "setting": "Total (N = 132)", "value": "131 (99) n (%)"}, {"measurement": "Drug-related AEs", "setting": "Total (N = 132)", "value": "89 (67) n (%)"}, {"measurement": "Drug-related SAEs", "setting": "Total (N = 132)", "value": "7 (5) n (%)"}, {"measurement": "Grade ≥ 3 AEs", "setting": "Total (N = 132)", "value": "71 (54) n (%)"}, {"measurement": "Liver-related AEs", "setting": "Total (N = 132)", "value": "31 (24) n (%)"}, {"measurement": "SAEs", "setting": "Total (N = 132)", "value": "50 (38) n (%)"}, {"measurement": "Deaths", "setting": "Total (N = 132), six died during LTFU (>28 days after last dose)", "value": "14 (11) n (%)"}]}
